For one assay, the system named is gastric lesions in rats. The note with it: lesions induced by taurocholate acid, aspirin or indomethacin, J Pharmacol Exp Ther 1992, 263(1), 374-380; cited from earlier work.
Assay [1] deals with T1, human EP1 receptor (Homo sapiens, UniProt P34995).
T1 construct: expressed in transfected cells; host or cells: CHO-K1
T1 sequence (P34995 1-402): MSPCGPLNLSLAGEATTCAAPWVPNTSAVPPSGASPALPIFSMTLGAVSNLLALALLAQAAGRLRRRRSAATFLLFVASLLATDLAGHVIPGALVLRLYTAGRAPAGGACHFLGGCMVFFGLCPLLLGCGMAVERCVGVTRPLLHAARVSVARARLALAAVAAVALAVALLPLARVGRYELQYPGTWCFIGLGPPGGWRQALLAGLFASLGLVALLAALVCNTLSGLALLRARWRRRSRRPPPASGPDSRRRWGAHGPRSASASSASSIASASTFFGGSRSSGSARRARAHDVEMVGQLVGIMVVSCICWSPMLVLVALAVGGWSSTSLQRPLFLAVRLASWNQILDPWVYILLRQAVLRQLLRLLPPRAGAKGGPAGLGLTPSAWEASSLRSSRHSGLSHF
Put plainly: human EP1 calcium mobilisation assay. The format is cell-based. The settings on record: human EP1, PGE2-induced calcium mobilisation in CHO-K1 cells; free bases or sodium salts; averages of a number of experiments; read-out: functional pKi value (converted). The gist of the method:
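CHO-K1 cells stably expressing human EP1, loaded with Fluo-4 after 24 h at 37° C; compounds added before PGE2 challenge. Inhibition of PGE2-induced [Ca2+]i rise read by FLIPR fluorescence; pIC50 from curve fitting of half-maximal inhibition.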
In general terms: Calcium flux is commonly read through the fluorescence of an indicator in the cells.

Assay [2] deals with T1, human EP1 receptor. Kind of assay: Binding assay for the human prostanoid EP1 receptor (competition with [3H]-PGE2). The settings on record: binding to human EP1 receptor, [3H]-PGE2 competition, CHO-K1 cell membranes; averages of a number of experiments; read-out: pIC50 value (converted). On the procedure:
Competition assay using [^3H]-PGE2.
Compound potencies are determined using a radioligand binding assay. In this assay compound potencies are determined from their ability to compete with tritiated prostaglandin E2 ([^3H]-PGE2) for binding to the human EP1 receptor.
This assay utilises Chinese hamster ovary-K1 (CHO-K1) cells into which a stable vector containing the EP1 cDNA has previously been transfected. Cells are cultured in suitable flasks containing culture medium such as DMEM:F-12 supplemented with 10% v/v foetal calf serum, 2 mM L-glutamine, 0.25 mg/ml geneticin, 10 μg/ml puromycin and 10 μM indomethacin.
Cells are detached from the culture flasks by incubation in calcium and magnesium free phosphate buffered saline containing 1 mM disodium ethylenediaminetetraacetic acid (Na2EDTA) and 10 μM indomethacin for 5 min. The cells are isolated by centrifugation at 250×g for 5 mins and suspended in an ice cold buffer such as 50 mM Tris, 1 mM Na2EDTA, 140 mM NaCl, 10 μM indomethacin (pH 7.4). The cells are homogenised using a Polytron tissue disrupter (2×10 s burst at full setting), centrifuged at 48,000×g for 20 mins and the pellet containing the membrane fraction is washed (optional) three times by suspension and centrifugation at 48,000×g for 20 mins. The final membrane pellet is suspended in an assay buffer such as 10 mM 2-[N-morpholino]ethanesulphonic acid, 1 mM Na2EDTA, 10 mM MgCl2 (pH 6). Aliquots are frozen at −80° C. until required.
For the binding assay the cell membranes, competing compounds and [^3H]-PGE2 (3 nM final assay concentration) are incubated in a final volume of 100 μl for 30 min at 30° C. All reagents are prepared in assay buffer. Reactions are terminated by rapid vacuum filtration over GF/B filters using a Brandell cell harvester. The filters are washed with ice cold assay buffer, dried and the radioactivity retained on the filters is measured by liquid scintillation counting in Packard TopCount scintillation counter.
The data are analysed using non linear curve fitting techniques to determine the concentration of compound producing 50% inhibition of specific binding (IC50).

For assay [3], the system named is rat model of chronic constriction injury. The note with it: Anesthesia and Analgesia 2001, 93, 1012-7; cited from earlier work.
Assay [4] has as its system rodent model of post-operative pain. The note with it: Anesthesia and Analgesia 2001, 92, 233-238; cited from earlier work.

The source of these data is US20080287430A1, “Furan Compounds Useful As Ep1 Receptor Antagonists” (priority 2005, published 2008).

Molecules are shown by their SMILES. Structures can show the parent of a compound that is named as a salt. Where only a bound is given, the exact number is not on record here.

As for `O=C(O)Cc1ccc(CCNS(=O)(=O)c2ccc(Cl)cc2)cc1` [BM 13505], the gastric lesions entry in the assay with gastric lesions in rats is given as “inhibit gastric lesions”.
In the case of `CC(C)COc1ccc(Cl)cc1Cc1ccc(-c2nc3ccc(N4CCOCC4)cc3[nH]2)o1` [Example 112, 2-[5-({5-Chloro-2-[(2-methylpropyl)oxy]-phenyl}methyl)-2-furanyl]-5-(4-morpholinyl)-1H-benzimidazoledihydrochloride], the Ki on human EP1 receptor [1] is < 1000 nM. The IC50 on human EP1 receptor [2] is ≤ 10 nM.
The corresponding values for `CC(C)COc1ccc(Cl)cc1Cc1ccc(-c2nc3ccc(N(C)C)cc3[nH]2)o1` [Example 113, 2-[5-({5-Chloro-2-[(2-methylpropyl)oxy]-phenyl}methyl)-2-furanyl]-N,N-dimethyl-1H-benzimidazol-5-aminedihydrochloride] are < 1000 nM and ≤ 10 nM.
Regarding `CC(C)COc1ccc(Cl)cc1Cc1ccc(-c2nc3ccc(CCO)cc3[nH]2)o1` [Example 115, 2-{2-[5-({5-Chloro-2-[(2-methylpropyl)oxy]-phenyl}methyl)-2-furanyl]-1H-benzimidazol-5-yl}ethanolhydrochloride], the Ki on human EP1 receptor [1] was < 1000 nM. Also, the IC50 at human EP1 receptor [2] is ≤ 10 nM.
The corresponding values for `CC(C)COc1ccc(Cl)cc1Cc1ccc(-c2nc3cnccc3[nH]2)o1` [Example 117, 2-[5-({5-Chloro-2-[(2-methylpropyl)oxy]phenyl}-methyl)-2-furanyl]-1H-imidazo[4,5-c]pyridine] are < 1000 nM and ≤ 10 nM.
For the molecule `CC(C)COc1ccc(Cl)cc1Cc1ccc(-c2nc3ccc(CO)cc3[nH]2)o1` [Example 132], the Ki on human EP1 receptor [1] was < 1000 nM. Further, the IC50 at human EP1 receptor [2] is ≤ 10 nM.
The corresponding values for `OCc1ccc2nc(-c3ccc(Cc4cc(Cl)ccc4OCc4ccccc4)o3)[nH]c2c1` [Example 133, {2-[5-({5-Chloro-2-[(phenylmethyl)oxy]phenyl}methyl)-2-furanyl]-1H-benzimidazol-5-yl}methanol] are < 1000 nM and ≤ 10 nM.
The corresponding values for `CC(C)COc1ccc(Cl)cc1Cc1ccc(-c2nc3nc(Br)cnc3[nH]2)o1` [Example 136, 5-Bromo-2-[5-({5-chloro-2-[(2-methylpropyl)oxy]phenyl}methyl)-2-furanyl]-1H-imidazo[4,5-b]pyrazine hydrochloride] are > 1000 nM and ≤ 10 nM.
For the molecule `CC(C)COc1ccc(Cl)cc1Cc1ccc(-c2nc3ccc(CN(C)C)cc3[nH]2)o1` [Example 142, ({2-[5-({5-Chloro-2-[(2-methylpropyl)oxy]-phenyl}methyl)-2-furanyl]-1H-benzimidazol-5-yl}methyl)dimethyl-amine dihydrochloride], the Ki at human EP1 receptor [1] is < 1000 nM. Moreover, on human EP1 receptor [2], the IC50 was ≤ 10 nM.
Turning to `CC(C)COc1ccc(Cl)cc1Cc1ccc(-c2nc3ccc(CN4CCCC4)cc3[nH]2)o1` [Example 143, 2-[5-({5-Chloro-2-[(2-methylpropyl)oxy]-phenyl}methyl)-2-furanyl]-5-(1-pyrrolidinylmethyl)-1H-benzimidazoledihydrochloride], on human EP1 receptor [1], the Ki was < 1000 nM. Moreover, the IC50 at human EP1 receptor [2] is ≤ 10 nM.
In the case of `CC(C)COc1ccc(Cl)cc1Cc1ccc(-c2nc3ccc(CN4CCN(C)CC4)cc3[nH]2)o1` [Example 145, 2-[5-({5-Chloro-2-[(2-methylpropyl)oxy]-phenyl}methyl)-2-furanyl]-5-[(4-methyl-1-piperazinyl)methyl]-1H-benzimidazoletrihydrochloride], the Ki on human EP1 receptor [1] was < 1000 nM. Also, the IC50 on human EP1 receptor [2] is ≤ 10 nM.
The corresponding values for `CCN1CCN(Cc2ccc3nc(-c4ccc(Cc5cc(Cl)ccc5OCC(C)C)o4)[nH]c3c2)CC1` [Example 146, 2-[5-({5-Chloro-2-[(2-methylpropyl)oxy]-phenyl}methyl)-2-furanyl]-5-[(4-ethyl-1-piperazinyl)methyl]-1H-benzimidazoletrihydrochloride] are < 1000 nM and ≤ 10 nM.
The corresponding values for `CC(C)COc1ccc(Cl)cc1Cc1ccc(-c2nc3ccc(CN4CCCCC4)cc3[nH]2)o1` [Example 147, 2-[5-({5-Chloro-2-[(2-methylpropyl)oxy]-phenyl}methyl)-2-furanyl]-5-(1-piperidinylmethyl)-1H-benzimidazoledihydrochloride] are < 1000 nM and ≤ 10 nM.
The corresponding values for `COCCN(C)Cc1ccc2nc(-c3ccc(Cc4cc(Cl)ccc4OCC(C)C)o3)[nH]c2c1` [Example 148, N-({2-[5-({5-Chloro-2-[(2-methylpropyl)oxy]-phenyl}methyl)-2-furanyl]-1H-benzimidazol-5-yl}methyl)-N-methyl-2-(methyloxy)ethanaminedihydrochloride] are < 1000 nM and ≤ 10 nM.
As for `CC(C)COc1ccc(Cl)cc1Cc1ccc(-c2nc3ccc(CN(C)CCC#N)cc3[nH]2)o1` [Example 149, 3-[({2-[5-({5-Chloro-2-[(2-methylpropyl)oxy]-phenyl}methyl)-2-furanyl]-1H-benzimidazol-5-yl}methyl)(methyl)-amino]propanenitriledihydrochloride], the Ki on human EP1 receptor [1] was < 1000 nM. For the same molecule, the IC50 at human EP1 receptor [2] is ≤ 10 nM.
The corresponding values for `CC(C)COc1ccc(Cl)cc1Cc1ccc(-c2nc3ccc(CN(C)C(C)C)cc3[nH]2)o1` [Example 151, N-({2-[5-({5-Chloro-2-[(2-methylpropyl)oxy]-phenyl}methyl)-2-furanyl]-1H-benzimidazol-5-yl}methyl)-N-methyl-2-propanaminedihydrochloride] are < 1000 nM and ≤ 10 nM.
The corresponding values for `CC(C)COc1ccc(Cl)cc1Cc1ccc(-c2nc3ccc(CNCCO)cc3[nH]2)o1` [Example 156, 2-[({2-[5-({5-Chloro-2-[(2-methylpropyl)oxy]-phenyl}methyl)-2-furanyl]-1H-benzimidazol-5-yl}methyl)amino]-ethanol] are < 1000 nM and ≤ 10 nM.
For the molecule `CC(C)COc1ccc(Cl)cc1Cc1ccc(-c2nc3ccc(CCN4CCN(C)CC4)cc3[nH]2)o1` [Example 162, 2-[5-({5-Chloro-2-[(2-methylpropyl)oxy]-phenyl}methyl)-2-furanyl]-5-[2-(4-methyl-1-piperazinyl)ethyl]-1H-benzimidazoletrihydrochloride], the Ki on human EP1 receptor [1] was < 1000 nM. Also, on human EP1 receptor [2], the IC50 is ≤ 10 nM.
The corresponding values for `CNCc1ccc2[nH]c(-c3ccc(Cc4cc(Cl)ccc4OCC(C)C)o3)nc2c1` [Example 166, ({2-[5-({5-Chloro-2-[(2-methylpropyl)oxy]phenyl}methyl)-2-furanyl]-1H-benzimidazol-5-yl}methyl)methylamine dihydrochloride] are < 1000 nM and ≤ 10 nM.
Consider `Cc1cc(Cl)ccc1S(=O)(=O)NC[C@H]1C2CCC(CC2)[C@@H]1/C=C\CCCC(=O)O` [ONO-8711], for which, in assay [3], the hyperalgesia and allodynia result was “reduces hyperalgesia and allodynia”. For the same molecule, the mechanical hyperalgesia entry in assay [4] is “inhibits mechanical hyperalgesia”.
